Measured values published in patent US5137811A, “Method for diagnosing periodontal diseases with a substrate specific for aminopeptidase activity of periodontopathic bacteria” (Sunstar Kabushiki Kaisha, priority 1986, dated 1992).
Where a SMILES comes first, the peptide text is derived from it. The star is where a group is joined. βNA = c1ccc2cc(N*)ccc2c1; Cbz = O=C(OCc1ccccc1)*

Legend:
[1] = system: periodontopathic bacteria specific aminopeptidase activity; assay: Hydrolytic activity of saliva supernatant (Experiment 7); type: biochemical; settings: 37° C. for 4 hours, Table 7
Experimental: (§1) Specimens of gingival crevicular fluid were collected with paper points from five subjects who were considered to be healthy from their clinical state, six subjects with gingivitis and six subjects with periodontitis. Each specimen was dispersed in Ringer's solution (1.5 ml), and the relative amount of spirochete to total bacteria: [formula] was determined with a phase contrast microscope. Further, the Ringer's solution (0.3 ml) was tested for hydrolytic activity using the substrate solution prepared in the same manner as described in Experiment 1. As substrates, there were used compounds of the formula [1], i.e., N-benzoylvalyl-glycyl-arginine-β-naphthylamide (BzVGR) and N-carbobenzoxy-valyl-glycyl-arginine-β-naphthylamide (CxVGR) were used.
(§2) A saliva mixture was collected from a group consisting of ten healthy subjects and centrifuged to obtain a supernatant. Likewise, centrifuged supernatants were obtained from a group of ten subjects with adult periodontitis and a group of four localized juvenile periodontitis. The supernatant was used as a specimen and its hydrolytic activity was determined according to the same manner as described in Experiment 4 except that the reaction was carried out at 37° C. for 4 hours. As the substrates, there were used N-carbobenzoxy-valyl-glycyl-arginine-p-nitrophenol (CxVGR-pNP), N-carbobenzoxy-valyl-glycylarginine-4-methoxy-2-naphthylamide (CxVGR-4NA) and N-carbobenzoxy-valyl-glycyl-arginine-β-naphthylamide (CxVGR-βNA). Color was developed by using lN sodium hydroxide for CxVGR-pNP and Fast Blue BB for CxVGR-4NA and CxVGR-βNA.

[2] = system: periodontopathic bacteria specific aminopeptidase activity; assay: Hydrolytic activity of gingival crevicular fluid specimens, OD525 (Experiment 6); type: biochemical
Experimental: (§3) Substrate compounds for aminopeptidase enzyme having various color developing groups derived from β-naphthylamine were dissolved in 0.1M Tris-HCl buffer (pH 7.0) at the concentration of 0.2 mM to obtain substrate solutions.
(§4) To the substrate solution (1.5 ml) was added the above cell suspension (0.3 ml) and reacted at 37° C. for 60 minutes. After completion of the reaction, a coloring reagent [prepared by dissolving diazonium salt of Garnet GBC in 1M acetate buffer (containing 10% Tween 20, pH: 4.2) at the concentration of 0.5 mg/ml] was added and, after 15 minutes, the absorption at 525 nm was determined with a spectrophotometer.
as §1
According to the same manner as described in Experiment 4, hydrolytic activity was tested by using the compounds of the formulas and [2], i.e., glycyl-proline-βnaphthylamide (GP), N-benzoyl-arginyl-glycyl-phenylalanylproline-β-naphthylamide (BzRGFP), N-carbobenzoxy-valylglycyl-arginine-β-naphthylamide (CxVGR) and N-benzoylglycyl-arginine-β-naphthylamide (BzGR) alone or in combination. Hydrolytic activity was determined by measuring absorption at 525 nm (OD525) and expressed as follows.

[3] = system: periodontopathic bacteria specific aminopeptidase activity; assay: Hydrolytic activity of gingival crevicular fluid specimens, visually evaluated (Experiment 4); type: biochemical; design: key: -: orange; +: dark orange; ++: brown; +++: dark brown
Experimental: as §3, §4, §1
In table 4, hydrolytic activity was visually evaluated and expressed as follows: […]

[4] = system: Actinobacillus actinomycetemcomitans; assay: Hydrolytic activity of oral anaerobe cell suspension on aminopeptidase substrates (Experiment 1); type: cell-based; settings: four strains, substrate 0.2 mM, pH 7.0, 37° C., 60 minutes, Table 1
In short: (§5)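 Treponema grown anaerobically in TYGVS (37 °C, 7 days) and other strains in brain heart infusion (37 °C, 48–72 h), then diluted to A660 1.0. Cells reacted 60 min at 37 °C with β-naphthylamine-derived substrates (0.2 mM solution, 0.1 M Tris-HCl pH 7.0). Garnet GBC coupling, A525 after 15 min; activity graded from mean released β-naphthylamine per strain.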

[5] = system: Treponema denticola; assay: as above; type: cell-based; settings: four strains, substrate 0.2 mM, pH 7.0, 37° C., 60 minutes, Table 1
In short: as §5

[6] = system: Bacteroides gingivalis; assay: as above; type: cell-based; settings: five strains, substrate 0.2 mM, pH 7.0, 37° C., 60 minutes, Table 1
In short: as §5

[7] = system: Fusobacterium nucleatum; assay: as above; type: cell-based; settings: three strains, substrate 0.2 mM, pH 7.0, 37° C., 60 minutes, Table 1
In short: as §5

[8] = system: Capnocytophaga sp.; assay: as above; type: cell-based; settings: four strains, substrate 0.2 mM, pH 7.0, 37° C., 60 minutes, Table 1
In short: as §5

[9] = system: periodontopathic bacteria specific aminopeptidase activity; assay: Hydrolytic activity of saliva supernatant, substrates alone or in combination (Experiment 9); type: biochemical; settings: 37° C. for 4 hours, Table 9
Experimental: as §2
According to the same manner as described in Experiment 7, hydrolytic activity was tested by using N-carbobenzoxy-valyl-glycyl-arginine-β-naphthylamide (CxVGR-βNA), N-benzoyl-arginyl-glycyl-phenylalanyl-proline-β-naphthylamide (BzRGFP-βNA), N-carbobenzoxy-valyl-glycylarginine-p-nitrophenol (CxVGR-pNP) and N-benzoyl-arginylglycyl-phenylalanyl-proline-p-nitrophenol (BzRGFP-pNP) alone or in combination as the substrates.

[10] = system: Actinobacillus actinomycetemcomitans; assay: Hydrolytic activity of cell suspension, substrates alone or in combination (Experiment 3); type: cell-based; settings: four strains, Table 3
In short: (§6)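 Cell suspensions (A660 = 1.0) were grown at 37 °C: Treponema anaerobically in TYGVS for 7 days, others in BHI broth for 48–72 h. They were reacted 60 min at 37 °C with 0.2 mM β-naphthylamide aminopeptidase substrate solutions (0.1 M Tris-HCl, pH 7.0), then Garnet GBC was added and A525 read after 15 min. Mean released β-naphthylamine per species was graded: +++ 40–<80, ++++ ≥80 nmol/ml.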

[11] = system: Treponema denticola; assay: as above; type: cell-based; settings: four strains, Table 3
In short: as §6

[12] = system: Actinomyces israelli; assay: as above; type: cell-based; settings: two strains, Table 3
In short: as §6

[13] = system: B. gingivalis; assay: as above; type: cell-based; settings: five strains, Table 3
In short: as §6

[14] = system: Fusobacterium nucleatum; assay: as above; type: cell-based; settings: three strains, Table 3
In short: as §6

[15] = Localized juvenile periodontitis subjects
[16] = Gingivitis subject 1 (spirochete 7.3 %)
[17] = Gingivitis subject 2 (spirochete 16.7 %)
[18] = Gingivitis subject 3 (spirochete 20.5 %)
[19] = Gingivitis subject 4 (spirochete 6.8 %)
[20] = Gingivitis subject 5 (spirochete 7.3 %)
[21] = Gingivitis subject 6 (spirochete 14.4 %)
[22] = Healthy subject 1 (spirochete 0.1 %)
[23] = Healthy subject 2 (spirochete 2.5 %)
[24] = Healthy subject 3 (spirochete 1.1 %)
[25] = Healthy subject 4 (spirochete 0.6 %)
[26] = Healthy subject 5 (spirochete 1.3 %)
[27] = Periodontitis subject 1 (spirochete 45.2 %)
[28] = Periodontitis subject 2 (spirochete 30.3 %)
[29] = Periodontitis subject 3 (spirochete 34.6 %)
[30] = Periodontitis subject 4 (spirochete 21.2 %)
[31] = Periodontitis subject 5 (spirochete 40.3 %)
[32] = Periodontitis subject 6 (spirochete 35.1 %)

hydrolytic activity ([1]; Adult Periodontitis subjects): 35.6 ± 9.8 nmol/mL | hydrolytic activity ([1]; Healthy subjects): 16.1 ± 10.3 nmol/mL | hydrolytic activity [1, 15]: 33.4 ± 10.0 nmol/mL | hydrolytic activity, absorption at 525 nm (OD525) [2, 16]: + (0.1≤OD525 <0.2) | hydrolytic activity, absorption at 525 nm (OD525) [2, 17]: + (0.1≤OD525 <0.2) | hydrolytic activity, absorption at 525 nm (OD525) [2, 18]: ++ (0.2≤OD525 <0.4) | hydrolytic activity, absorption at 525 nm (OD525) [2, 19]: - (OD525 <0.1) | hydrolytic activity, absorption at 525 nm (OD525) [2, 20]: - (OD525 <0.1) | hydrolytic activity, absorption at 525 nm (OD525) [2, 21]: + (0.1≤OD525 <0.2) | hydrolytic activity, absorption at 525 nm (OD525) [2, 22]: - (OD525 <0.1) | hydrolytic activity, absorption at 525 nm (OD525) [2, 23]: + (0.1≤OD525 <0.2) | hydrolytic activity, absorption at 525 nm (OD525) [2, 24]: - (OD525 <0.1) | hydrolytic activity, absorption at 525 nm (OD525) [2, 25]: - (OD525 <0.1) | hydrolytic activity, absorption at 525 nm (OD525) [2, 26]: - (OD525 <0.1) | hydrolytic activity, absorption at 525 nm (OD525) [2, 27]: +++ (0.4≤OD525 <0.8) | hydrolytic activity, absorption at 525 nm (OD525) [2, 28]: +++ (0.4≤OD525 <0.8) | hydrolytic activity, absorption at 525 nm (OD525) [2, 29]: +++ (0.4≤OD525 <0.8) | hydrolytic activity, absorption at 525 nm (OD525) [2, 30]: +++ (0.4≤OD525 <0.8) | hydrolytic activity, absorption at 525 nm (OD525) [2, 31]: +++ (0.4≤OD525 <0.8) | hydrolytic activity, absorption at 525 nm (OD525) [2, 32]: +++ (0.4≤OD525 <0.8) | hydrolytic activity, visually evaluated [3, 16]: + | hydrolytic activity, visually evaluated [3, 17]: + | hydrolytic activity, visually evaluated [3, 18]: ++ | hydrolytic activity, visually evaluated [3, 19]: - | hydrolytic activity, visually evaluated [3, 20]: - | hydrolytic activity, visually evaluated [3, 21]: + | hydrolytic activity, visually evaluated [3, 22]: - | hydrolytic activity, visually evaluated [3, 23]: + | hydrolytic activity, visually evaluated [3, 24]: - | hydrolytic activity, visually evaluated [3, 25]: - | hydrolytic activity, visually evaluated [3, 26]: - | hydrolytic activity, visually evaluated [3, 27]: +++ | hydrolytic activity, visually evaluated [3, 28]: +++ | hydrolytic activity, visually evaluated [3, 29]: +++ | hydrolytic activity, visually evaluated [3, 30]: +++ | hydrolytic activity, visually evaluated [3, 31]: +++ | hydrolytic activity, visually evaluated [3, 32]: +++ | hydrolytic activity ([9]; Adult Periodontitis subjects): 34.8 ± 10.2 nmol/mL | hydrolytic activity ([9]; Healthy subjects): 15.0 ± 8.8 nmol/mL | hydrolytic activity [9, 15]: 31.5 ± 9.8 nmol/mL
Compound: CC(C)[C@H](NC(=O)OCc1ccccc1)C(=O)NCC(=O)N[C@@H](CCCNC(=N)N)C(=O)Nc1ccc2ccccc2c1 [CxVGR, N-carbobenzoxy-valyl-glycyl-arginine-β-naphthylamide] (Cbz-Val-Gly-Arg-βNA)
hydrolytic activity (average amount of released β-naphthylamine) [4]: - (release amount<5 nmol/ml) | hydrolytic activity (average amount of released β-naphthylamine) [5]: +++ (release amount≥40 nmol/ml) | hydrolytic activity (average amount of released β-naphthylamine) [6]: +++ (release amount≥40 nmol/ml) | hydrolytic activity (average amount of released β-naphthylamine) [7]: - (release amount<5 nmol/ml) | hydrolytic activity (average amount of released β-naphthylamine) [8]: - (release amount<5 nmol/ml) | hydrolytic activity (release amount) [10]: - (release amount<5 nmol/ml) | hydrolytic activity (release amount) [11]: +++ (40≤release amount<80 nmol/ml) | hydrolytic activity (release amount) [12]: - (release amount<5 nmol/ml) | hydrolytic activity (release amount) [13]: +++ (40≤release amount<80 nmol/ml) | hydrolytic activity (release amount) [14]: - (release amount<5 nmol/ml)
